Test results published in ChEMBL document CHEMBL2203037, “Synthesis and Anti-influenza A Virus Activity of 2,2-Dialkylamantadines and Related Compounds” (ACS Med Chem Lett, 2012).
Active and inactive are the calls of the source. No cut-off for these calls is given here.

How the values were obtained:
[1] = tested on: Vesicular stomatitis virus; assay: Antiviral activity against Vesicular stomatitis virus by cell based assay; type: functional, organism-based
[2] = tested on: Respiratory syncytial virus; assay: Antiviral activity against Respiratory syncytial virus by cell based assay; type: functional, organism-based
[3] = Cytotoxicity against dog MDCK cells assessed as cell viability after 72 hrs by MTS assay; type: cell-based, Canis lupus familiaris
[4] = Cytotoxicity against dog MDCK cells assessed as cell morphology alterations; type: cell-based, Canis lupus familiaris
Simplexvirus = assay: Antiviral activity against Herpes simplex virus by cell based assay; type: functional, organism-based
Vaccinia virus = assay: Antiviral activity against Vaccinia virus by cell based assay; type: functional, organism-based; conditions: Orthopoxvirus vaccinia
Human respirovirus 3 = assay: Antiviral activity against Parainfluenza-3 virus by cell based assay; type: functional, organism-based
Coxsackievirus B4 = assay: Antiviral activity against Coxsackievirus B4 by cell based assay; type: functional, organism-based
Sindbis virus = assay: Antiviral activity against Sindbis virus by cell based assay; type: functional, organism-based
Punta Toro virus = assay: Antiviral activity against Punta Toro virus by cell based assay; type: functional, organism-based
H3N2 subtype [5] = assay: Antiviral activity against Influenza A virus (A/HK/7/87 (H3N2)) infected in MDCK cells assessed as virus-induced cytopathic effect by MTS assay; type: functional, organism-based, A/Hong Kong/7/1987(H3N2)
H3N2 subtype [6] = assay: Antiviral activity against Influenza A virus (A/HK/7/87 (H3N2)) infected in MDCK cells assessed as virus-induced cytopathic effect measured 3 days post infection by microscopic analysis; type: functional, organism-based; conditions: A/Hong Kong/7/1987(H3N2), 72 h
Feline coronavirus = assay: Antiviral activity against Feline coronavirus by cell based assay; type: functional, organism-based
[7] = tested on: Mammalian orthoreovirus 1; assay: Antiviral activity against Reovirus-1 by cell based assay; type: functional, organism-based
Influenza A virus [8] = assay: Antiviral activity against Influenza A virus (A/X-31(H3N2)) infected in MDCK cells assessed as virus-induced cytopathic effect measured 3 days post infection by microscopic analysis; type: functional, organism-based
Influenza A virus [9] = assay: Antiviral activity against amantadine-sensitive Influenza A virus (A/FM/1/47 (H1N1)) infected in MDCK cells assessed as virus-induced cytopathic effect measured 3 days post infection by microscopic analysis; type: functional, organism-based; conditions: A/Fort Monmouth/1/1947(H1N1), 72 h
Influenza A virus [10] = assay: Antiviral activity against amantadine-sensitive Influenza A virus (A/Ned/378/05 (H1N1)) infected in MDCK cells assessed as virus-induced cytopathic effect measured 3 days post infection by microscopic analysis; type: functional, organism-based; conditions: 72 h
Influenza A virus [11] = assay: Antiviral activity against Influenza A virus (A/Ishikawa/7/82 (H3N2)) infected in MDCK cells assessed as virus-induced cytopathic effect measured 3 days post infection by microscopic analysis; type: functional, organism-based
[12] = Influenza A virus, A/Hong Kong/7/1987(H3N2), MDCK
[13] = Influenza A virus, A/Ishikawa/7/82 (H3N2), MDCK, 72 h

| SMILES | Activity [1] | Activity [2] | CC50 at 72 h [3] [µM] | MCC [4] [µM] | Activity (Simplexvirus) | Activity (Vaccinia virus) | Activity (Human respirovirus 3) | Activity (Coxsackievirus B4) | Activity (Sindbis virus) | Activity (Punta Toro virus) | EC50 (H3N2 subtype [5]; [12]) [µM] | EC50 (H3N2 subtype [6]) [µM] | Activity (Feline coronavirus) | Activity [7] | EC50 (Influenza A virus [9]) [µM] | further results |
| --- | --- | --- | --- | --- | --- | --- | --- | --- | --- | --- | --- | --- | --- | --- | --- | --- |
| CC1(C)C2CC3CC(C2)CC1(NCc1ccccc1)C3 | inactive | inactive | 1.1 | 4 | inactive | inactive | inactive | inactive | inactive | inactive | > 100 | > 100 | inactive | inactive |  |  |
| CN(C)C12CC3CC(CC(C3)C1(C)C)C2 | inactive | inactive | 68 | 110 | inactive | inactive | inactive | inactive | inactive | inactive | > 100 | > 100 | inactive | inactive |  |  |
| CN(C)C12CC3(C)CC(CC3(C)C1)C2(C)C | inactive | inactive | > 100 | ≥ 100 | inactive | inactive | inactive | inactive | inactive | inactive | > 100 | > 100 | inactive | inactive |  |  |
| CC(=O)N[C@H]1[C@H]([C@H](O)[C@H](O)CO)OC(C(=O)O)=C[C@@H]1NC(=N)N [ZANAMIVIR] |  |  |  | > 200 |  |  |  |  |  |  |  | 1.2 |  |  | 5 | EC50 (Influenza A virus [8]; mdck): 0.16 µM; EC50 (Influenza A virus [10]): 1.7 µM; EC50 (Influenza A virus [11]; [13]): 8.7 µM |
| CC1(C)C2CC3CC(C2)CC1(N)C3 | inactive | inactive | 77 | 167 | inactive | inactive | inactive | inactive | inactive | inactive | > 100 | > 100 | inactive | inactive |  |  |
| CCC1(CC)C2CC3CC(C2)CC1(N)C3 | inactive | inactive | > 100 | ≥ 100 | inactive | inactive | inactive | inactive | inactive | inactive |  | > 100 | inactive | inactive | 7 | EC50 (Influenza A virus [8]; Influenza A virus, MDCK, 72 h): > 100 µM; EC50 (Influenza A virus [10]): 4.7 µM; EC50 (Influenza A virus [11]; [13]): > 100 µM; EC50 (H3N2 subtype [5]; mdck): > 100 µM |
| CCCC1(CCC)C2CC3CC(C2)CC1(N(C)C)C3 | inactive | inactive | > 100 | ≥ 100 | inactive | inactive | inactive | inactive | inactive | inactive | > 100 | > 100 | inactive | inactive |  |  |
| CC(C)C1C2CC3CC(C2)CC1(N)C3 (configuration not stated) | inactive | inactive | 8.6 | 5.3 | inactive | inactive | inactive | inactive | inactive | inactive | > 100 | > 100 | inactive | inactive |  |  |
| CC(C)C1C2CC3CC(C2)CC1(N(C)C)C3 (configuration not stated) | inactive | inactive | ≥ 100 | > 100 | inactive | inactive | inactive | inactive | inactive | inactive | > 100 | > 100 | inactive | inactive |  |  |
| CNC12CC3CC(CC(C3)C1(C)C)C2 | inactive | inactive | 70 | 110 | inactive | inactive | inactive | inactive | inactive | inactive | > 100 | > 100 | inactive | inactive |  |  |
| NC12CC3CC(CC(C3)C1)C2 [AMANTADINE] |  |  | > 100 | 500 |  |  |  |  |  |  |  | 3.4 |  |  | 5.1 | EC50 (Influenza A virus [8]; mdck): 61 µM; EC50 (Influenza A virus [11]; [13]): 11 µM |
| CC1(C)C2CC3CC(C2)CC1(N1CCCCC1)C3 | inactive | inactive | 0.8 | 4 | inactive | inactive | inactive | inactive | inactive | inactive | > 100 | > 100 | inactive | inactive |  |  |
| CCOC(=O)C1=C[C@@H](OC(CC)CC)[C@H](NC(C)=O)[C@@H](N)C1 [OSELTAMIVIR] |  |  |  | > 100 |  |  |  |  |  |  |  | 29 |  |  | 16 | EC50 (Influenza A virus [8]; Influenza A virus, MDCK, 72 h): 0.11 µM; EC50 (Influenza A virus [10]): 1.5 µM; EC50 (Influenza A virus [11]; [13]): 3 µM |
| NC(=O)c1ncn([C@@H]2O[C@H](CO)[C@@H](O)[C@H]2O)n1 [RIBAVIRIN] |  |  | ≥ 20 | ≥ 100 |  |  |  |  |  |  | 7 | 7.7 |  |  | 10 | EC50 (Influenza A virus [8]; mdck): 8.8 µM; EC50 (Influenza A virus [10]): 7.6 µM; EC50 (Influenza A virus [11]; mdck): 8.8 µM |
| NC12CC3CC(CC(C3)C13CCCCC3)C2 | inactive | inactive | 4.7 | 6 | inactive | inactive | inactive | inactive | inactive | inactive | > 100 | > 100 | inactive | inactive |  |  |
| CC(N)C12CC3CC(CC(C3)C1)C2 (configuration not stated) [RIMANTADINE] |  |  | > 100 | ≥ 100 |  |  |  |  |  |  |  | 0.17 |  |  | 1.9 | EC50 (Influenza A virus [8]; mdck): 7 µM; EC50 (Influenza A virus [10]): 0.5 µM; EC50 (Influenza A virus [11]; [13]): 0.45 µM |
| CCCC1(CCC)C2CC3CC(C2)CC1(N)C3 | inactive | inactive | 2.9 | 6 | inactive | inactive | inactive | inactive | inactive | inactive | > 100 | > 100 | inactive | inactive |  |  |
| CC12CC3CC1(C)CC(N)(C2)C3(C)C | inactive | inactive | > 100 | ≥ 100 | inactive | inactive | inactive | inactive | inactive | inactive | > 100 | > 100 | inactive | inactive |  |  |
| CCNC12CC3CC(CC(C3)C1(C)C)C2 | inactive | inactive | 85 | 200 | inactive | inactive | inactive | inactive | inactive | inactive | > 100 | > 100 | inactive | inactive |  |  |
| CN(Cc1ccccc1)C12CC3CC(CC(C3)C1(C)C)C2 | inactive | inactive | 0.7 | 4 | inactive | inactive | inactive | inactive | inactive | inactive | > 100 | > 100 | inactive | inactive |  |  |
